Data: PubChem BioAssay AID1963875 (Molecular Pharmacology Branch, DTP, NCI, 2024)

System: KRAS-mutant PDC complex spheroid viability
Assay: Anticancer human tumor 186277-243-T-J2-PDC patient-derived colon adenocarcinoma cell line growth inhibition [KRAS2]
Conditions: for viability, T/C: stronger effect = lower value
How it was run: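 Combination screen of spheroid viability in tumor-cell co-cultures with endothelial (HUVEC) and mesenchymal stem cell stroma. Each agent was tested in half-log dilutions, topping at clinical Cmax or at 10 microM without a known Cmax.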

[1] = curve of first compound, second compound 0.1 µM
[2] = curve of first compound, second compound 0.316 µM
[3] = curve of first compound, second compound 1 µM
[4] = curve of first compound, second compound 3.16 µM
[5] = curve of first compound, second compound 10 µM
[6] = second compound 0.1 µM, first compound 0.000316 µM
[7] = second compound 0.1 µM, first compound 0.001 µM
[8] = second compound 0.1 µM, first compound 0.00316 µM
[9] = second compound 0.1 µM, first compound 0.01 µM
[10] = second compound 0.1 µM, first compound 0.0316 µM
[11] = second compound 0.1 µM, first compound 0.1 µM
[12] = second compound 0.316 µM, first compound 0.000316 µM
[13] = second compound 0.316 µM, first compound 0.001 µM
[14] = second compound 0.316 µM, first compound 0.00316 µM
[15] = second compound 0.316 µM, first compound 0.01 µM
[16] = second compound 0.316 µM, first compound 0.0316 µM
[17] = second compound 0.316 µM, first compound 0.1 µM
[18] = second compound 1 µM, first compound 0.000316 µM
[19] = second compound 1 µM, first compound 0.001 µM
[20] = second compound 1 µM, first compound 0.00316 µM
[21] = second compound 1 µM, first compound 0.01 µM
[22] = second compound 1 µM, first compound 0.0316 µM
[23] = second compound 1 µM, first compound 0.1 µM
[24] = second compound 3.16 µM, first compound 0.000316 µM
[25] = second compound 3.16 µM, first compound 0.001 µM
[26] = second compound 3.16 µM, first compound 0.00316 µM
[27] = second compound 3.16 µM, first compound 0.01 µM
[28] = second compound 3.16 µM, first compound 0.0316 µM
[29] = second compound 3.16 µM, first compound 0.1 µM
[30] = second compound 10 µM, first compound 0.000316 µM
[31] = second compound 10 µM, first compound 0.001 µM
[32] = second compound 10 µM, first compound 0.00316 µM
[33] = second compound 10 µM, first compound 0.01 µM
[34] = second compound 10 µM, first compound 0.0316 µM
[35] = second compound 10 µM, first compound 0.1 µM
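Wherever viability, T/C is given: viability read after seven days of compound exposure; 100% = DMSO vehicle-treated spheroids so lower means less viable.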

Row | SMILES | IC50 [1] [nM] | IC50 [2] [nM] | IC50 [3] [nM] | IC50 [4] [nM] | IC50 [5] [nM] | viability, T/C [6] [%] | viability, T/C [7] [%] | viability, T/C [8] [%] | viability, T/C [9] [%] | viability, T/C [10] [%] | viability, T/C [11] [%] | viability, T/C [12] [%] | viability, T/C [16] [%] | viability, T/C [17] [%] | viability, T/C [22] [%] | viability, T/C [23] [%] | viability, T/C [28] [%] | viability, T/C [29] [%] | viability, T/C [34] [%] | viability, T/C [35] [%] | other results
1 | CC(C)n1nc(-c2ccc3oc(N)nc3c2)c2c(N)ncnc21 + COc1cc2nc(C)nc(NC(C)c3cc(N)cc(C(F)(F)F)c3)c2cc1OC1CCOC1 | 7.67 | 6.38 | 15.4 | 17.3 | 5.8 | 98.3 | 96.3 | 64.8 | 47 | 25.3 | 17.3 | 111 | 19.8 | 17.2 | 28.5 | 13.7 | 29 | 16 | 21.1 | 8.37 | viability, T/C [13]: 93.6%; viability, T/C [14]: 74.1%; viability, T/C [15]: 34.8%; viability, T/C [18]: 108%; viability, T/C [19]: 103%; viability, T/C [20]: 91.8%; viability, T/C [21]: 62.9%; viability, T/C [24]: 109%; viability, T/C [25]: 103%; viability, T/C [26]: 99.8%; viability, T/C [27]: 69%; viability, T/C [30]: 64.5%; viability, T/C [31]: 64.3%; viability, T/C [32]: 58.8%; viability, T/C [33]: 41.9%
2 | CC1OCC2(CCN(c3cnc(Sc4ccnc(N)c4Cl)c(N)n3)CC2)C1N (stereo not given) + CNCc1ccccc1-c1csc(C(C)Nc2nc(C)nc3cc(OC)c(OC)cc23)c1 | > 10000 | > 10000 | > 10000 | 1520 | < 31.6 | – | – | – | – | 96.1 | 104 | – | 103 | 99.8 | 91.2 | 104 | 85.2 | 72.8 | 0.18 | 0.18 | viability, T/C (second compound 0.1 µM, first compound 0.316 µM): 104%; viability, T/C (second compound 0.1 µM, first compound 1 µM): 90.9%; viability, T/C (second compound 0.1 µM, first compound 3.16 µM): 107%; viability, T/C (second compound 0.1 µM, first compound 10 µM): 105%; viability, T/C (second compound 0.316 µM, first compound 0.316 µM): 111%; viability, T/C (second compound 0.316 µM, first compound 1 µM): 108%; viability, T/C (second compound 0.316 µM, first compound 3.16 µM): 104%; viability, T/C (second compound 0.316 µM, first compound 10 µM): 84.2%; viability, T/C (second compound 1 µM, first compound 0.316 µM): 95%; viability, T/C (second compound 1 µM, first compound 1 µM): 105%; viability, T/C (second compound 1 µM, first compound 3.16 µM): 93.2%; viability, T/C (second compound 1 µM, first compound 10 µM): 60.5%; viability, T/C (second compound 3.16 µM, first compound 0.316 µM): 102%; viability, T/C (second compound 3.16 µM, first compound 1 µM): 71.4%; viability, T/C (second compound 3.16 µM, first compound 3.16 µM): 11.4%; viability, T/C (second compound 3.16 µM, first compound 10 µM): 1.07%; viability, T/C (second compound 10 µM, first compound 0.316 µM): 0.17%; viability, T/C (second compound 10 µM, first compound 1 µM): 0.15%; viability, T/C (second compound 10 µM, first compound 3.16 µM): 0.12%; viability, T/C (second compound 10 µM, first compound 10 µM): 0.15%
3 | COc1cc2nccc(Oc3ccc(NC(=O)C4(C(=O)Nc5ccc(F)cc5)CC4)cc3)c2cc1OC | – | – | – | – | – | – | – | – | – | – | – | – | – | – | – | – | – | – | – | – | viability, T/C (compound 0.0316 µM): 92.6% [middle of 5 runs]; viability, T/C (compound 0.1 µM): 99.7% [middle of 5 runs]; viability, T/C (compound 0.316 µM): 104% [middle of 5 runs]; viability, T/C (compound 3.16 µM): 13.8% [middle of 5 runs]; IC50 (curve of compound): 2.02 µM [middle of 4 runs]
4 | CN(C)C/C=C/C(=O)Nc1cc2c(Nc3ccc(F)c(Cl)c3)ncnc2cc1O[C@H]1CCOC1 + CNCc1ccccc1-c1csc(C(C)Nc2nc(C)nc3cc(OC)c(OC)cc23)c1 | > 100 | > 100 | > 100 | 7.32 | < 0.316 | 100 | 100 | 110 | 117 | 127 | 108 | 110 | 109 | 96 | 119 | 95.9 | 16.4 | 5.67 | 0.13 | 0.33 | viability, T/C [13]: 96.2%; viability, T/C [14]: 113%; viability, T/C [15]: 119%; viability, T/C [18]: 108%; viability, T/C [19]: 107%; viability, T/C [20]: 102%; viability, T/C [21]: 120%; viability, T/C [24]: 108%; viability, T/C [25]: 103%; viability, T/C [26]: 109%; viability, T/C [27]: 29%; viability, T/C [30]: 0.21%; viability, T/C [31]: 0.22%; viability, T/C [32]: 0.19%; viability, T/C [33]: 0.15%
